Results on 28 molecules are retold here after US9611224B2 (Hoffmann-La Roche Inc., priority 2012, dated 2017).

pIC50: −log10 of the molar value. Counter-ions that a name gives are not always drawn. Like-named read-outs stand apart in the source and are kept apart here.

For this assay, the target named is BIR3 domain of XIAP (Homo sapiens (Human), UniProt P98170). Kind of assay: TR-FRET assay for BIR3 (inhibition of binding to Peptide A). On the procedure: TR-FRET Assay for BIR2 and BIR3
Percentage of inhibition at each concentration was determined to generate an IC50 value for each test compound.
(In general: Time-resolved FRET reads energy transfer from a long-lived donor to a nearby acceptor.)

Setting [1] is: 6x His-tagged BIR3 domain (aa 241-356 of XIAP), 20 nM Peptide A, 10 concentrations.

What is called pIC50 is −log10 of the IC50, conventionally taken in molar units. A higher pIC50 goes with a low IC50.

BIR3 domain of XIAP, sequence (P98170 other isoform, or with tags, fused parts or gaps): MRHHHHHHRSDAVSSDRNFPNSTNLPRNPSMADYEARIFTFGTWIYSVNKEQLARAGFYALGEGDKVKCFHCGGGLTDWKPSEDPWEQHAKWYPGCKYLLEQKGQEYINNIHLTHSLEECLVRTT

The molecule `CN[C@@H](C)C(=O)N[C@H]1CCc2ccccc2N(Cc2ccncc2)C1=O` [Example 2h, (S)-2-Methylamino-N—((S)-2-oxo-1-pyridin-4-ylmethyl-2,3,4,5-tetrahydro-1H-benzo[b]azepin-3-yl)-propionamide hydrochloride] showed a pIC50 under setting [1] of less than 4.26.

In turn, `CN[C@@H](C)C(=O)N[C@H]1CCc2ccccc2N(Cc2cncn2C)C1=O` [Example 2i, (S)-2-Methylamino-N—[(S)-1-(3-methyl-3H-imidazol-4-ylmethyl)-2-oxo-2,3,4,5-tetrahydro-1H-benzo[b]azepin-3-yl]-propionamide hydrochloride] gave a pIC50 under setting [1] of less than 4.26.

With `CC[C@H](N)C(=O)N[C@H]1CCc2ccccc2N(Cc2c(OC)cnc3ccccc23)C1=O` [Example 3, (S)-2-amino-N—((S)-1-((3-methoxyquinolin-4-yl)methyl)-2-oxo-2,3,4,5-tetrahydro-1H-benzo[b]azepin-3-yl)butanamide], the pIC50 under setting [1] is 4.30.

Turning to `CC[C@H](NCCO)C(=O)N[C@H]1CCc2ccccc2N(Cc2c(OC)cnc3ccccc23)C1=O` [Example 4, (S)-2-(2-Hydroxyethylamino)-N—((S)-1-((3-methoxyquinolin-4-yl)methyl)-2-oxo-2,3,4,5-tetrahydro-1H-benzo[b]azepin-3-yl)butanamide], the pIC50 under setting [1] is less than 4.26.

As to `CC[C@H](N)C(=O)N[C@@H]1CCc2ccccc2N(Cc2c(OC)ccc3cc(Br)ccc23)C1=O` [Example 5a, (S)-2-Amino-N—[(R)-1-(6-bromo-2-methoxy-naphthalen-1-ylmethyl)-2-oxo-2,3,4,5-tetrahydro-1H-benzo[b]azepin-3-yl]-butyramide hydrochloride], the pIC50 under setting [1] is less than 4.26.

The molecule `CC[C@H](NCCO)C(=O)N[C@H]1CCc2ccccc2N(Cc2c(OC)ccc3cc(Br)ccc23)C1=O` [Example 6, (S)—N—((S)-1-((6-Bromo-2-methoxynaphthalen-1-yl)methyl)-2-oxo-2,3,4,5-tetrahydro-1H-benzo[b]azepin-3-yl)-2-(2-hydroxyethylamino)butanamide] gave a pIC50 under setting [1] of 4.40.

On to `CC[C@H](NCc1ccccc1)C(=O)N[C@H]1CCc2ccccc2N(Cc2c(OC)ccc3cc(Br)ccc23)C1=O` [Example 8, (S)-2-(Benzylamino)-N—((S)-1-((6-bromo-2-methoxynaphthalen-1-yl)methyl)-2-oxo-2,3,4,5-tetrahydro-1H-benzo[b]azepin-3-yl)butanamide], for which the pIC50 under setting [1] was less than 4.26.

Under setting [1], `CC[C@H](NC1COC1)C(=O)N[C@H]1CCc2ccccc2N(Cc2c(OC)ccc3cc(Br)ccc23)C1=O` [Example 9, (S)—N—((S)-1-((6-Bromo-2-methoxynaphthalen-1-yl)methyl)-2-oxo-2,3,4,5-tetrahydro-1H-benzo[b]azepin-3-yl)-2-(oxetan-3-ylamino)butanamide] had a pIC50 of less than 4.26.

Consider `COc1ccc2cc(Br)ccc2c1CN1C(=O)[C@@H](NC(=O)[C@@H](N)[C@H](C)O)CCc2ccccc21` [Example 10, (2S,3S)-2-Amino-N—((S)-1-((6-bromo-2-methoxynaphthalen-1-yl)methyl)-2-oxo-2,3,4,5-tetrahydro-1H-benzo[b]azepin-3-yl)-3-hydroxybutanamide hydrochloride], for which, under setting [1], the pIC50 was less than 4.26.

`COc1ccc2cc(Br)ccc2c1CN1C(=O)[C@@H](NC(=O)[C@@H](N)[C@@H](C)O)CCc2ccccc21` [Example 11, (2S,3R)-2-Amino-N—((S)-1-((6-bromo-2-methoxynaphthalen-1-yl)methyl)-2-oxo-2,3,4,5-tetrahydro-1H-benzo[b]azepin-3-yl)-3-hydroxybutanamide hydrochloride] had a pIC50 under setting [1] of less than 4.26.

Molecule `COc1ccc2cc(Br)ccc2c1CN1C(=O)[C@@H](NC(=O)[C@@H](N)C2CC2)CCc2ccccc21` [Example 13, hydrochloride] showed a pIC50 under setting [1] of less than 4.26.

In the case of `CN[C@@H](C)C(=O)N[C@H]1CCc2ccccc2N(Cc2c(C#CC3(O)COC3)ccc3ccccc23)C1=O` [Example 14, (S)—N—{(S)-1-[2-(3-Hydroxy-oxetan-3-ylethynyl)-naphthalen-1-ylmethyl]-2-oxo-2,3,4,5-tetrahydro-1H-benzo[b]azepin-3-yl}-2-methylamino-propionamide], the pIC50 under setting [1] is less than 4.26.

Take `CCCOc1ccc2ccccc2c1CN1C(=O)[C@@H](NC(=O)[C@H](C)NC)CCc2ccccc21` [Example 15, (S)-2-Methylamino-N—[(S)-2-oxo-1-(2-propoxy-naphthalen-1-ylmethyl)-2,3,4,5-tetrahydro-1H-benzo[b]azepin-3-yl]-propionamide hydrochloride]: under setting [1], the pIC50 is less than 4.26.

Regarding `C=CCOc1ccc2ccccc2c1CN1C(=O)[C@@H](NC(=O)[C@H](C)NC)CCc2ccccc21` [Example 16, (S)—N—[(S)-1-(2-Allyloxy-naphthalen-1-ylmethyl)-2-oxo-2,3,4,5-tetrahydro-1H-benzo[b]azepin-3-yl]-2-methylamino-propionamide], the pIC50 under setting [1] was less than 4.26.

The molecule `CN[C@@H](C)C(=O)N[C@H]1CCc2ccccc2N(Cc2c(O)ccc3ccccc23)C1=O` [Example 17, (S)—N—[(S)-1-(2-Hydroxy-naphthalen-1-ylmethyl)-2-oxo-2,3,4,5-tetrahydro-1H-benzo[b]azepin-3-yl]-2-methylamino-propionamide hydrochloride] had a pIC50 under setting [1] of less than 4.26.

Molecule `CN[C@@H](C)C(=O)N[C@H]1CCc2ccc(OCc3ccccc3)cc2N(Cc2c(C)ccc3ccccc23)C1=O` [Example 18, (S)—N—[(S)-8-Benzyloxy-1-(2-methyl-naphthalen-1-ylmethyl)-2-oxo-2,3,4,5-tetrahydro-1H-benzo[b]azepin-3-yl]-2-methylamino-propionamide hydrochloride] gave a pIC50 under setting [1] of less than 4.26.

In the case of `CN[C@@H](C)C(=O)N[C@H]1CCc2ccccc2N(Cc2csc3ccc(Br)cc23)C1=O` [Example 19, (S)—N—[(S)-1-(5-Bromo-benzo[b]thiophen-3-ylmethyl)-2-oxo-2,3,4,5-tetra hydro-1H-benzo[b]azepin-3-yl]-2-methylamino-propionamide hydrochloride], under setting [1], the pIC50 is 4.56.

`CN[C@@H](C)C(=O)N[C@H]1CCc2ccccc2N(Cc2csc3ccccc23)C1=O` [Example 20, (S)—N—((S)-1-Benzo[b]thiophen-3-ylmethyl-2-oxo-2,3,4,5-tetrahydro-1H-benzo[b]azepin-3-yl)-2-methylamino-propionamide] had a pIC50 under setting [1] of less than 4.24.

`CN[C@@H](C)C(=O)N[C@H]1CCc2ccc(-c3ccccc3)cc2N(Cc2c(C)ccc3ccccc23)C1=O` [Example 21, (S)-2-Methylamino-N—[(S)-1-(2-methyl-naphthalen-1-ylmethyl)-2-oxo-8-phenyl-2,3,4,5-tetrahydro-1H-benzo[b]azepin-3-yl]-propionamide hydrochloride]: under setting [1], the pIC50 is less than 4.24.

As for `CN[C@@H](C)C(=O)N[C@H]1CCc2ccc(OCc3ccccc3)cc2N(Cc2ccccc2)C1=O` [Example 22, (S)—N—((S)-1-Benzyl-8-benzyloxy-2-oxo-2,3,4,5-tetrahydro-1H-benzo[b]azepin-3-yl)-2-methylamino-propionamide hydrochloride], the pIC50 under setting [1] was less than 4.24.

For the molecule `CN[C@@H](C)C(=O)N[C@H]1CCc2ccc(OCCc3ccccc3)cc2N(Cc2ccccc2)C1=O` [Example 23, (S)—N—((S)-1-Benzyl-2-oxo-8-phenethyloxy-2,3,4,5-tetrahydro-1H-benzo[b]azepin-3-yl)-2-methylamino-propionamide hydrochloride], the negative logarithm of the IC50 (pIC50) under setting [1] is less than 4.27.

`CN[C@@H](C)C(=O)N[C@H]1CCc2ccc(OC)cc2N(Cc2ccccc2)C1=O` [Example 24, (S)—N—((S)-1-Benzyl-8-methoxy-2-oxo-2,3,4,5-tetrahydro-1H-benzo[b]azepin-3-yl)-2-methylamino-propionamide hydrochloride]: under setting [1], the pIC50 is less than 4.27.

Molecule `CN[C@@H](C)C(=O)N[C@H]1CCc2ccc(OCCCc3ccccc3)cc2N(Cc2ccccc2)C1=O` [Example 25, (S)—N—[(S)-1-Benzyl-2-oxo-8-(3-phenyl-propoxy)-2,3,4,5-tetrahydro-1H-benzo[b]azepin-3-yl]-2-methylamino-propionamide hydrochloride] showed a pIC50 under setting [1] of less than 4.27.

Consider `CN[C@@H](C)C(=O)NC1CCc2ccc(Br)cc2N(Cc2ccccc2)C1=O` (stereo partly drawn) [Example 26, (S)—N-(1-Benzyl-8-bromo-2-oxo-2,3,4,5-tetrahydro-1H-benzo[b]azepin-3-yl)-2-methylamino-propionamide hydrochloride], for which the pIC50 under setting [1] is less than 4.26.

Under setting [1], `CN[C@H](C)C(=O)N[C@H]1CCc2ccccc2N(Cc2c(OC)ccc3cc(Br)ccc23)C1=O` [Example 27, (R)—N—[(S)-1-(6-Bromo-2-methoxy-naphthalen-1-ylmethyl)-2-oxo-2,3,4,5-tetrahydro-1H-benzo[b]azepin-3-yl]-2-methylamino-propionamide hydrochloride] gave a pIC50 of less than 4.26.

`CN[C@@H](C)C(=O)N[C@H]1CCc2ccccc2N(Cc2cccc3ccc(-c4nnn[nH]4)cc23)C1=O` [Example 28, (S)-2-Methylamino-N—{(S)-2-oxo-1-[7-(1H-tetrazol-5-yl)-naphthalen-1-ylmethyl]-2,3,4,5-tetrahydro-1H-benzo[b]azepin-3-yl}-propionamide] had a pIC50 under setting [1] of less than 4.26.

As for `CN[C@@H](C)C(=O)N[C@H]1CCc2ccccc2N(Cc2c(OC)ccc3cc(-c4nc(C)cs4)ccc23)C1=O` [Example 30, (S)—N—{(S)-1-[2-Methoxy-6-(4-methyl-thiazol-2-yl)-naphthalen-1-ylmethyl]-2-oxo-2,3,4,5-tetrahydro-1H-benzo[b]azepin-3-yl}-2-methylamino-propionamide hydrochloride], the pIC50 under setting [1] was less than 4.26.

Molecule `CN[C@@H](C)C(=O)N[C@H]1CCc2ccccc2N(Cc2c(OC)ccc3cc(-c4noc(=O)[nH]4)ccc23)C1=O` [Example 31, (S)—N—{(S)-1-[2-Methoxy-6-(5-oxo-4,5-dihydro-[1,2,4]oxadiazol-3-yl)-naphthalen-1-ylmethyl]-2-oxo-2,3,4,5-tetrahydro-1H-benzo[b]azepin-3-yl}-2-methylamino-propionamide hydrochloride] gave a pIC50 of 4.35.
